Structures can show the parent of a compound that is named as a salt.
What was measured:
human PPARα = target: T1, human PPARα (Homo sapiens, UniProt Q07869); test: GAL4-PPARα luciferase reporter assay in COS-1 cells; format: cell-based; conditions: relative luciferase activity, vehicle (DMSO) control regarded as 1, 24 hours
T1 construct: human PPARα (including amino acid residues 167-468); expressed in transfected cells; host or cells: COS-1
T1 sequence (Q07869 167-468): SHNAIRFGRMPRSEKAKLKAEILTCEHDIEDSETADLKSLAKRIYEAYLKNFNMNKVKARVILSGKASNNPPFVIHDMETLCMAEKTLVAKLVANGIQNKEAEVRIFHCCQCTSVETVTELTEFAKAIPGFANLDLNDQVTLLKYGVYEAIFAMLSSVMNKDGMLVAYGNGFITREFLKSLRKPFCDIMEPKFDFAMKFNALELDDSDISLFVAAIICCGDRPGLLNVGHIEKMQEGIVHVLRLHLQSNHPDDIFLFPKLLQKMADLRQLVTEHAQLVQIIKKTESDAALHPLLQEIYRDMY
Text: (§1) By inserting a gene fragment encoding the ligand binding domain of human PPARα (including amino acid residues 167-468) or a gene fragment encoding the ligand binding domain of human PPARγ (including amino acids residue 204-505) into a multicloning site of expressing vector pM containing DNA binding domain of yeast GAL4 protein (Clonetech), a vector plasmid expressing a fused protein of GAL4 protein DNA binding domain and human PPARα or γ ligand binding domain.
(§2) As a reporter plasmid, pGL3-Basic Vector containing firefly luciferase gene (Promega Corporation) was used wherein Gal4-responsive sequence UAS and rabbit β-globin promoter were inserted.
(§3) For the modification of genetic transformation efficiency, a plasmid containing lacZ gene, pβgal control (Clonetech), was used.
(§4) COS-1 cells were cultured in the phenol red free Dulbecco's Modified Eagles Medium (DMEM) (Gibco) supplemented with 5% activated carbon/dextran stripped fetal bovine serum at 37° C. with 5% carbon dioxide. The COS-1 cells were plated at a concentration of 5×10^4 cells/well into a 24-well plate, and the plate was incubated overnight. The medium was replaced with a fresh medium supplemented without 5% activated carbon/dextran treated fetal bovine serum. Further, the cells were transfected using Lipofectamine plus reagent (Gibco) with plasmid GAL4-PPARα- or γ-expressing plasmid (5 ng), the reporter plasmid (50 ng), pβgal control (350 ng) per well. After incubation for 4 hours, the medium was changed with a fresh medium supplemented with 5% activated carbon/dextran treated fetal bovine serum. Then, the compound of the present invention was added thereto in such an amount that the final concentration thereof is 1 μM or 10 μM. After the cultivation for 24 hours, the cells were lysed with a solution for cell lysis accompanied to the Luciferase Assay System (Promega Corporation). The luciferase activity therein was measured by a luminometer using the reagent for measuring luciferase which was also accompanied to said System. The β-galactosidase activity was measured using a β-galactosidase enzyme assay system (Promega Corporation) to correct the generic transfection efficiency.
(§5) The PPARα- or γ-agonistic activity was expressed as a relative activity where the luciferase activity in the well to which the vehicle (DMSO) was added as control was regarded as 1.

human PPARγ = target: T2, human PPARγ (Homo sapiens, UniProt P37231); test: GAL4-PPARγ luciferase reporter assay in COS-1 cells; format: cell-based; conditions: relative luciferase activity, vehicle (DMSO) control regarded as 1, 24 hours
T2 construct: human PPARγ (including amino acids residue 204-505); expressed in transfected cells; host or cells: COS-1
T2 sequence (P37231 204-505): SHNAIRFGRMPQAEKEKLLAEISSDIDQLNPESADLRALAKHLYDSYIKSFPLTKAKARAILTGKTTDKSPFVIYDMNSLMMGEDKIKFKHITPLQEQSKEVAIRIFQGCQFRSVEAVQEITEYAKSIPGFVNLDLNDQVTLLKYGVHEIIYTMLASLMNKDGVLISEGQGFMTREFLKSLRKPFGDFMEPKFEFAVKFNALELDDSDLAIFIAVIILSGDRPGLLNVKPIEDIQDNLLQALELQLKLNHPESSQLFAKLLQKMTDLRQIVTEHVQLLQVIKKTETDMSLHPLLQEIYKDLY
Text: as §1, §2, §3, §4, §5

male db/db mice = test: Hypoglycemic activity in db/db mice; format: in vivo; conditions: 30 mg/kg orally once a day for 2 weeks, blood glucose level on the last day
Procedure: The test compounds as disclosed in Examples were dissolved or suspended in a 0.5% carbomethyl cellulose solution, and orally administered to male db/db mice (7 to 8 weeks old) at a final dose of 30 mg/kg once a day for 2 weeks. On the last day, the blood was taken at the tail vein, and immediately thereafter, perchloric acid was added for removing proteins, and the blood glucose level was measured by Glucose CII Test Wako (Wako Pure Industries, Ltd.).
In addition, the hypoglycemic activity was calculated by the following equation.

PPARα-agonistic activity (10 μM) (human PPARα) | PPARγ-agonistic activity (10 μM) (human PPARγ) | SMILES | Hypoglycemic Activity (%) (male db/db mice)
8.0 | 4.7 | Cc1ccc(C(=O)c2cccn2C/C=C/c2cccc(COC(C)(C)C(=O)O)c2)cc1 [Example 1B, 2-Methyl-2-[(3-{(1E)-3-[2-(4-methylbenzoyl)-1H-pyrrol-1-yl]prop-1-en-1-yl}-benzyl)oxy]propionic acid] | 21.2%
7.8 | 5.6 | Cc1ccc(C(=O)c2cccn2C/C=C/c2cccc(COC(C(=O)O)c3ccccc3)c2)cc1 (stereo not shown) [Example 2B, [(3-{(1E)-3-[2-(4-Methylbenzoyl)-1H-pyrrol-1-yl]prop-1-en-1-yl}benzyl)oxy]-(phenyl)acetic acid] | –
12.6 | 7.5 | Cc1ccc(C(=O)c2cccn2C/C=C/c2ccc(COC(C)(C)C(=O)O)cc2)cc1 [Example 3B, 2-Methyl-2-[(4-{(1E)-3-[2-(4-methylbenzoyl)-1H-pyrrol-1-yl]prop-1-en-1-yl}-benzyl)oxy]propionic acid] | 17.8%
12.6 | 3.4 | Cc1ccc(C(=O)c2cccn2C/C=C/c2cccc(COCC(=O)O)c2)cc1 [Example 4, [(3-{(1E)-3-[2-(4-Methylbenzoyl)-1H-pyrrol-1-yl]prop-1-en-1-yl}benzyl)oxy]acetic acid] | –
11.6 | 5.4 | Cc1ccc(C(=O)c2cccn2C/C=C/c2cccc(CO[C@H](C)C(=O)O)c2)cc1 [Example 5B, (2R)-2-[(3-{(1E)-3-[2-(4-Methylbenzoyl)-1H-pyrrol-1-yl]prop-1-en-1-yl}benzyl)-oxy]propionic acid] | –
10.1 | 5.5 | Cc1ccc(C(=O)c2cccn2C/C=C/c2ccc(CO[C@H](C)C(=O)O)cc2)cc1 [Example 6B, (2R)-2-[(4-{(1E)-3-[2-(4-Methylbenzoyl)-1H-pyrrol-1-yl]prop-1-ene-1-yl}benzyl)-oxy]propionic acid] | 63.3%
10.8 | 2.9 | Cc1ccc(C(=O)c2cccn2C/C=C/c2cccc(CO[C@@H](C)C(=O)O)c2)cc1 [Example 7B, (2S)-2-[(3-{(1E)-3-[2-(4-Methylbenzoyl)-1H-pyrrol-1-yl]prop-1-en-1-yl}benzyl)-oxy]propionic acid] | –
8.6 | 5.3 | CCC(OCc1cccc(/C=C/Cn2cccc2C(=O)c2ccc(C)cc2)c1)C(=O)O (stereo not shown) [Example 9B, 2-[(3-{(1E)-3-[2-(4-methylbenzoyl)-1H-pyrrol-1-yl]prop-1-en-1-yl}benzyl)oxy]-butyric acid] | –
– | – | Cc1ccc(C(=O)c2cccn2C/C=C/c2ccc(CO[C@@H](C)C(=O)O)cc2)cc1 [Example 11, (2S)-2-[(4-{(1E)-3-[2-(4-Methylbenzoyl)-1H-pyrrol-1-yl]prop-1-en-1-yl}benzyl)-oxy]propionic acid 1,3-dihydroxy-2-(hydroxymethyl)propan-2-aminium salt] | 64.4%
– | – | Cc1ccc(C(=O)c2nccn2C/C=C/c2ccc(CO[C@H](C)C(=O)O)cc2)cc1 [Example 27] | 51.0%
– | – | COc1ccc(C(=O)c2nccn2C/C=C/c2ccc(CO[C@H](C)C(=O)O)cc2)cc1 [Example 29] | 43.0%
– | – | Cc1ccc(C(=O)c2nc3ccccc3n2C/C=C/c2ccc(COC(C)(C)C(=O)O)cc2)cc1 [Example 38] | 18.2%
17.7 | 8.9 | Cc1ccc(C(=O)c2cccn2C/C=C/c2ccc(COCc3nnn[nH]3)cc2)cc1 [compound 51] | –
